Measured values as given in patent US6274715A, “Tricyclic erythromycin derivatives” (priority 1997, dated 2001).
Values after ≈ are worked out from the molar mass of the structure shown.

Key:
Type in all cases: cell-based
[1] = test system: STAPHYLOCOCCUS AUREUS ATCC 6538P; experiment: In vitro antibacterial activity, MIC, BHI agar dilution; settings: S. aureus ATCC 6538P, 35-37° C., 20 to 24 hours, unit assumed
[2] = test system: STAPHYLOCOCCUS AUREUS A5177; experiment: as above; settings: S. aureus A5177, unit assumed
[3] = test system: STAPHYLOCOCCUS AUREUS A-5278; experiment: as above; settings: S. aureus A-5278, unit assumed
[4] = test system: STAPHYLOCOCCUS AUREUS CMX 642A; experiment: as above; settings: S. aureus CMX 642A, unit assumed
[5] = test system: STAPHYLOCOCCUS AUREUS NCTC10649M; experiment: as above; settings: S. aureus NCTC10649M, unit assumed
[6] = test system: STAPHYLOCOCCUS AUREUS CMX 553; experiment: as above; settings: S. aureus CMX 553, unit assumed
[7] = test system: STAPHYLOCOCCUS AUREUS 1775; experiment: as above; settings: S. aureus 1775, unit assumed
[8] = test system: STAPHYLOCOCCUS EPIDERMIDIS 3519; settings: S. epidermidis 3519; BHI agar; unit assumed
EN[…] ATCC 8043 = experiment: In vitro antibacterial activity, MIC, BHI agar dilution; settings: E. faecium ATCC 8043, unit assumed
How it was run: (§1)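 MIC was read visually as the lowest drug concentration showing no growth, a slight haze or sparsely isolated colonies relative to a compound-free BHI plate. Plates held serial aqueous dilutions in BHI agar, were spot-inoculated with 1:100 (or 1:10) culture dilutions and incubated 20 to 24 hours at 35-37° C.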

M[…] ATCC 4698 = experiment: as above; settings: M. luteus ATCC 4698, unit assumed
How it was run: as §1

M[…] ATCC 9341 = experiment: as above; settings: M. luteus ATCC 9341, unit assumed
How it was run: as §1

STR[…] 508 = experiment: as above; settings: S. agalactiae CMX 508, unit assumed
How it was run: as §1

[9] = test system: STREPTOCOCCUS BOVIS A-5169; experiment: as above; settings: S. bovis A-5169, unit assumed
[10] = test system: STREPTOCOCCUS PYOGENES EES61; experiment: as above; settings: S. pyogenes EES61, unit assumed
[11] = test system: STREPTOCOCCUS PYOGENES 930; experiment: as above; settings: S. pyogenes 930, unit assumed
[12] = test system: STREPTOCOCCUS PYOGENES PIU 2548; experiment: as above; settings: S. pyogenes PIU 2548, unit assumed
ESCHERICHIA COLI JUHL = settings: E. coli JUHL; BHI agar; unit assumed
ESCHERICHIA COLI SS = experiment: In vitro antibacterial activity, MIC, BHI agar dilution; settings: E. coli SS, unit assumed
ESCHERICHIA COLI DC-2 = experiment: as above; settings: E. coli DC-2, unit assumed
ESCHERICHIA COLI H560 = experiment: as above; settings: E. coli H560, unit assumed
ESCHERICHIA COLI KNK 437 = settings: E. coli KNK 437; BHI agar; unit assumed
[13] = test system: ENTEROBACTER AEROGENES ATCC 13048; experiment: In vitro antibacterial activity, MIC, BHI agar dilution; settings: E. aerogenes ATCC 13048, unit assumed
[14] = test system: KLEBSIELLA PNEUMONIAE ATCC 8045; experiment: as above; settings: K. pneumoniae ATCC 8045, unit assumed
[15] = test system: PROVIDENCIA STUARTII CMX 640; settings: P. stuartii CMX 640; BHI agar; unit assumed
[16] = test system: PSEUDOMONAS AERUGINOSA BMH10; experiment: In vitro antibacterial activity, MIC, BHI agar dilution; settings: P. aeruginosa BMH10, unit assumed
[17] = test system: PSEUDOMONAS AERUGINOSA 5007; experiment: as above; settings: P. aeruginosa 5007, unit assumed
[18] = test system: PSEUDOMONAS AERUGINOSA K799/WT; experiment: as above; settings: P. aeruginosa K799/WT, unit assumed
[19] = test system: PSEUDOMONAS AERUGINOSA K799/61; experiment: as above; settings: P. aeruginosa K799/61, unit assumed
PSEUDOMONAS CEPACIA 296I = experiment: as above; settings: P. cepacia 296I, unit assumed
[20] = test system: PSEUDOMONAS AERUGINOSA DPHD-5263; experiment: as above; settings: P. aeruginosa DPHD-5263, unit assumed
[21] = test system: PSEUDOMONAS AERUGINOSA DPHD-2862; experiment: as above; settings: P. aeruginosa DPHD-2862, unit assumed
CANDIDA ALBICANS CCH 442 = experiment: as above; settings: C. albicans CCH 442, unit assumed
[22] = test system: MYCOBACTERIUM SMEGMATIS ATCC 114; experiment: as above; settings: M. smegmatis ATCC 114, unit assumed

CCC1OC(=O)C(C)C(=O)C(C)C(OC2OC(C)CC(N(C)C)C2O)C(C)(OC)CC(C)C2=NC(CN3CCCCC3)CN3C(=O)OC1(C)C3C2C (stereo not drawn) [Example 96]
MIC [1]: 0.2 µg/mL (≈ 0.272 µM)
MIC [2]: 0.2 µg/mL (≈ 0.272 µM)
MIC [3]: > 100 µg/mL
MIC [4]: 0.39 µg/mL (≈ 0.531 µM)
MIC [5]: 0.39 µg/mL (≈ 0.531 µM)
MIC [6]: 0.39 µg/mL (≈ 0.531 µM)
MIC [7]: > 100 µg/mL
MIC [8]: 0.39 µg/mL (≈ 0.531 µM)
MIC (EN[…] ATCC 8043): 0.1 µg/mL (≈ 0.136 µM)
MIC (M[…] ATCC 4698): 0.39 µg/mL (≈ 0.531 µM)
MIC (M[…] ATCC 9341): 0.02 µg/mL (≈ 0.0272 µM)
MIC (STR[…] 508): 0.05 µg/mL (≈ 0.068 µM)
MIC [9]: 0.01 µg/mL (≈ 0.0136 µM)
MIC [10]: 0.02 µg/mL (≈ 0.0272 µM)
MIC [11]: > 100 µg/mL
MIC [12]: 0.39 µg/mL (≈ 0.531 µM)
MIC (ESCHERICHIA COLI JUHL): 25 µg/mL (≈ 34 µM)
MIC (ESCHERICHIA COLI SS): 0.39 µg/mL (≈ 0.531 µM)
MIC (ESCHERICHIA COLI DC-2): 25 µg/mL (≈ 34 µM)
MIC (ESCHERICHIA COLI H560): 12.5 µg/mL (≈ 17 µM)
MIC (ESCHERICHIA COLI KNK 437): 50 µg/mL (≈ 68 µM)
MIC [13]: 100 µg/mL (≈ 136 µM)
MIC [14]: 100 µg/mL (≈ 136 µM)
MIC [15]: > 100 µg/mL
MIC [16]: 100 µg/mL (≈ 136 µM)
MIC [17]: > 100 µg/mL
MIC [18]: > 100 µg/mL
MIC [19]: 0.78 µg/mL (≈ 1.06 µM)
MIC (PSEUDOMONAS CEPACIA 296I): > 100 µg/mL
MIC [20]: > 100 µg/mL
MIC [21]: > 100 µg/mL
MIC (CANDIDA ALBICANS CCH 442): > 100 µg/mL
MIC [22]: 3.1 µg/mL (≈ 4.22 µM)

CCC1OC(=O)C(C)C(=O)C(C)C(OC2OC(C)CC(N(C)C)C2O)C(C)(OC)CC(C)C2=NC(CN(C)C)CN3C(=O)OC1(C)C3C2C (stereo not drawn) [Example 97]
MIC [1]: 0.2 µg/mL (≈ 0.288 µM)
MIC [2]: 0.2 µg/mL (≈ 0.288 µM)
MIC [3]: > 100 µg/mL
MIC [4]: 0.2 µg/mL (≈ 0.288 µM)
MIC [5]: 0.78 µg/mL (≈ 1.12 µM)
MIC [6]: 0.39 µg/mL (≈ 0.561 µM)
MIC [7]: > 100 µg/mL
MIC [8]: 0.39 µg/mL (≈ 0.561 µM)
MIC (EN[…] ATCC 8043): 0.1 µg/mL (≈ 0.144 µM)
MIC (M[…] ATCC 4698): 0.78 µg/mL (≈ 1.12 µM)
MIC (M[…] ATCC 9341): 0.05 µg/mL (≈ 0.072 µM)
MIC (STR[…] 508): 0.02 µg/mL (≈ 0.0288 µM)
MIC [9]: 0.01 µg/mL (≈ 0.0144 µM)
MIC [10]: 0.02 µg/mL (≈ 0.0288 µM)
MIC [11]: > 100 µg/mL
MIC [12]: 0.2 µg/mL (≈ 0.288 µM)
MIC (ESCHERICHIA COLI JUHL): 50 µg/mL (≈ 72 µM)
MIC (ESCHERICHIA COLI SS): 0.39 µg/mL (≈ 0.561 µM)
MIC (ESCHERICHIA COLI DC-2): 50 µg/mL (≈ 72 µM)
MIC (ESCHERICHIA COLI H560): 25 µg/mL (≈ 36 µM)
MIC (ESCHERICHIA COLI KNK 437): 50 µg/mL (≈ 72 µM)
MIC [13]: 100 µg/mL (≈ 144 µM)
MIC [14]: 100 µg/mL (≈ 144 µM)
MIC [15]: > 100 µg/mL
MIC [16]: > 100 µg/mL
MIC [17]: > 100 µg/mL
MIC [18]: > 100 µg/mL
MIC [19]: 0.78 µg/mL (≈ 1.12 µM)
MIC (PSEUDOMONAS CEPACIA 296I): > 100 µg/mL
MIC [20]: > 100 µg/mL
MIC [21]: > 100 µg/mL
MIC (CANDIDA ALBICANS CCH 442): > 100 µg/mL
MIC [22]: 12.5 µg/mL (≈ 18 µM)

CC[C@H]1OC(=O)[C@H](C)C(=O)[C@H](C)[C@@H](O[C@@H]2O[C@H](C)C[C@H](N(C)C)[C@H]2O)[C@](C)(OC)C[C@@H](C)C2=N[C@H](COCc3ccccc3F)CN3C(=O)O[C@@]1(C)[C@H]3[C@H]2C [Example 102]
MIC [1]: 0.2 µg/mL (≈ 0.258 µM)
MIC [2]: 0.1 µg/mL (≈ 0.129 µM)
MIC [3]: > 100 µg/mL
MIC [4]: 0.2 µg/mL (≈ 0.258 µM)
MIC [5]: 0.1 µg/mL (≈ 0.129 µM)
MIC [6]: 0.1 µg/mL (≈ 0.129 µM)
MIC [7]: > 100 µg/mL
MIC [8]: 0.2 µg/mL (≈ 0.258 µM)
MIC (EN[…] ATCC 8043): 0.01 µg/mL (≈ 0.0129 µM)
MIC (M[…] ATCC 4698): 0.02 µg/mL (≈ 0.0258 µM)
MIC (M[…] ATCC 9341): ≤ 0.005 µg/mL
MIC (STR[…] 508): 0.01 µg/mL (≈ 0.0129 µM)
MIC [9]: 0.01 µg/mL (≈ 0.0129 µM)
MIC [10]: 0.01 µg/mL (≈ 0.0129 µM)
MIC [11]: > 100 µg/mL
MIC [12]: 0.2 µg/mL (≈ 0.258 µM)
MIC (ESCHERICHIA COLI JUHL): 100 µg/mL (≈ 129 µM)
MIC (ESCHERICHIA COLI SS): 0.39 µg/mL (≈ 0.503 µM)
MIC (ESCHERICHIA COLI DC-2): > 100 µg/mL
MIC (ESCHERICHIA COLI H560): 50 µg/mL (≈ 64.4 µM)
MIC (ESCHERICHIA COLI KNK 437): > 100 µg/mL
MIC [13]: > 100 µg/mL
MIC [14]: > 100 µg/mL
MIC [15]: > 100 µg/mL
MIC [16]: > 100 µg/mL
MIC [17]: > 100 µg/mL
MIC [18]: > 100 µg/mL
MIC [19]: 3.1 µg/mL (≈ 4 µM)
MIC (PSEUDOMONAS CEPACIA 296I): 50 µg/mL (≈ 64.4 µM)
MIC [20]: > 100 µg/mL
MIC [21]: > 100 µg/mL
MIC (CANDIDA ALBICANS CCH 442): > 100 µg/mL
MIC [22]: 0.01 µg/mL (≈ 0.0129 µM)
